For 33 compounds, CC50 and EC50 results are on record in patent publication US11390631B1, “Benzodiazepine derivatives as RSV inhibitors” (priority 2015, dated 2022).

Each structure is given as a SMILES string. Read-outs that look alike come from different tables or passages of the source.

Data set [1] can be described thus: Cytotoxicity on parallel plate without virus, ATPlite readout. The data set is classed as cell-based. The settings on record: human, Hep-2 cells (no virus), Hep-2 cells without virus, 5-day incubation. The method, boiled down:
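Hep-2 cells, 8,000/well, received duplicate 2-fold compound dilutions with growth medium in place of virus. After 5 days, viability measured as ATP by ATPlite luminescence. CC50 reported in ranges: A>50 μM; B 10-50 μM; C<10 μM.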
On the technique in general: In ATP-based viability assays light output follows the ATP content of the culture.

Data set [2] concerns RSV-B, genotype B, strain 9320. Nature of the data set: RSV-B assay: A549 cells infected with RSV-B, qPCR or ATPlite readout. The settings on record: human respiratory syncytial virus. The data set is classed as cell-based, Human respiratory syncytial virus (HRSV). The text has this: Hep-2 cells, (originally derived from tumors grown in irradiated-cortisonised weanling rats that had been injected with epidermoid carcinoma tissue from a person's larynx, but later found to be indistinguishable from HeLa cells by PCR DNA analysis), were used for the culturing of genotype B, strain 9320. Flasks were inoculated with RSV-B and viral stocks were collected once cytopathic effect (CPE) was greater than […]. Viral stocks in 25% o sucrose media were snap frozen using liquid nitrogen to increase viral stability. Viral stock titers were quantified by tissue culture infectious dose 50% o (TCID50) using 8,000 cells per well and 5-fold viral dilutions across a 96-well plate, cultured for 4 days. Viral stock titers were also quantified by a plaque forming unit assay, as described elsewhere.
The assay is run as follows: A549 cells (originally derived through explant culture from a person's carcinomatous lung tissue) are seeded into the inner 60 wells of a 96-well plate at 3,000 cells per well in a volume of 50 μL using A549 growth media (F-12K Media, 1% Penn/Strep, 1% nonessential amino acids, 10% heat-inactivated FBS). 2-fold serial dilutions of control and test compounds are added to the wells in duplicate in a total volume of 25 μL. Viral stock is then added to the wells at a multiplicity of infection (MOI) of 0.5 in a volume of 25 μL, bringing the total volume of each well to 100 μL. The MOI is calculated using the PFU/mL, or TCID50 if unavailable. Each 96-well plate has a control column of 6 wells with cells and virus but no compound (negative control, max CPE), a column with cells but no compound or virus (positive control, minimum CPE), and a column with no cells or virus or compound (background plate/reagent control). The control wells with cells but no virus are given an additional 25 uL of growth media containing an equal quantity of sucrose as those wells receiving the viral stock in order to keep consistent in media and volume conditions. The outer wells of the plate are filled with 125 μL of moat media (DMEM, 1% Penn/Strep) to act as a thermal and evaporative moat around the test wells. 6 days post infection, the plates are read using qPCR or ATP lite (50 uL added per well), which quantifies the amount of ATP (a measure of cell health) present in each well. Assay plates treated with APTlite are read using the Envision luminometer. […] EC50 ranges are as follows: A<0.4 μM; B 0.4-0.8 μM; C>0.8 μM.
A general note: Quantitative PCR measures a nucleic acid by following its amplification.

Data set [3] relates to Human RSV-A (“Long” strain). Nature of the data set: RSV-A assay: inhibition of cytopathic effect in Hep-2 cells, ATPlite readout. The class given is cell-based, Human respiratory syncytial virus (HRSV). The settings on record: human respiratory syncytial virus, read-out: Human RSV-A (“Long” strain) EC50. The procedure, abridged: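 Hep-2 cells (8,000/well) were infected with RSV-A Long at MOI 0.1 alongside duplicate 2-fold compound dilutions. After 5 days, cell viability was read by ATPlite luminescence to give EC50. CC50 came from a parallel plate without virus.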
For orientation: Cytopathic effects are the visible damage that an infection or toxin causes in cultured cells.

Where [4] appears, read: A549, read-out: Human RSV-B EC50.

As a reminder, the CC50 is the concentration at which the toxic effect on the cells reaches its halfway point. Read a high CC50 as lower toxicity to the cells. What is called EC50 is the concentration that produces a half-maximal response. For `O=C1Nc2ccccc2C(c2ccccc2)=N[C@@H]1Nc1nnc(-c2ccc(F)cc2)o1` [Example 7a], the CC50 at 5 days in data set [1] was more than 50000 nM. For the same compound, the EC50 in data set [2] (setting [4]) is more than 800 nM; in data set [3] (HEp-2, 120 h), 400 to 800 nM.
With `O=C1Nc2ccccc2C(c2ccccc2)=N[C@@H]1Nc1nnc(-c2cccnc2N2CCOCC2)o1` [Example 242], the concentration giving a half-maximal response (EC50) in data set [2] (setting [4]) is less than 400 nM; in data set [3] (HEp-2, 120 h), less than 400 nM.
Take `C[C@@H]1COCCN1c1ncccc1-c1nnc(NC2N=C(c3ccccc3)c3ccccc3NC2=O)o1` (stereo partly shown) [Example 245]: the EC50 in data set [2] (setting [4]) is 400 to 800 nM; in data set [3] (HEp-2, 120 h), less than 400 nM.
In the same order, the values of `O=C1Nc2ccccc2C(c2ccccc2)=N[C@@H]1Nc1nnc(-c2ncc(C(F)(F)F)cc2N2C3CCC2COC3)o1` [Example 250] are less than 400 nM and less than 400 nM.
In the same order, the values of `O=C1Nc2ccccc2C(c2ccccc2)=N[C@@H]1Nc1nnc(-c2ncc(C(F)(F)F)cc2N2CC3CCC(C2)O3)o1` [Example 251] are less than 400 nM and less than 400 nM.
For the compound `Cc1ccc(-c2nnc(N[C@H]3N=C(c4ccccc4)c4ccccc4NC3=O)o2)c(N2CCOCC2)n1` [Example 252], the EC50 was less than 400 nM in data set [2] (setting [4]) and less than 400 nM in data set [3] (HEp-2, 120 h).
In the case of `O=C1Nc2ccccc2C(c2ccccc2)=N[C@@H]1Nc1nnc(-c2ncc(C(F)(F)F)cc2N2CCOCC2)o1` [Example 253], the EC50 is less than 400 nM in data set [2] (A549 cells infected with RSV-B strain 9320, MOI 0.5, read-out: Human RSV-B EC50) and less than 400 nM in data set [3] (120 h, Hep-2 cells, MOI 0.1, 5-day incubation, ATPlite).
Turning to `C[C@H]1CN(c2ncccc2-c2nnc(NC3N=C(c4ccccc4)c4ccccc4NC3=O)o2)CCO1` (stereo partly shown) [Example 263], the EC50 was 400 to 800 nM in data set [2] (setting [4]) and 400 to 800 nM in data set [3] (HEp-2, 120 h).
Turning to `COC1CCN(c2cc(C(F)(F)F)cnc2-c2nnc(N[C@H]3N=C(c4ccccc4)c4ccccc4NC3=O)o2)CC1` [Example 268], the half-maximal effective concentration (EC50) in data set [2] (setting [4]) was 400 to 800 nM; in data set [3] (HEp-2, 120 h), more than 800 nM.
With `O=C1Nc2ccccc2C(c2ccccc2)=N[C@@H]1Nc1nnc(-c2ncc(C(F)(F)F)cc2N2CCC(F)CC2)o1` [Example 269], the EC50 in data set [2] (setting [4]) is 400 to 800 nM; in data set [3] (HEp-2, 120 h), more than 800 nM.
In the same order, the values of `Cc1nc(-c2nnc(N[C@H]3N=C(c4ccccc4)c4ccccc4NC3=O)o2)c(N2CCOCC2)s1` [Example 272] are less than 400 nM and less than 400 nM.
In the same order, the values of `O=C1Nc2ccccc2C(c2ccccc2)=N[C@@H]1Nc1nnc(-c2ccc(C(F)(F)F)nc2N2CC3CCC(C2)O3)o1` [Example 276] are more than 800 nM and 400 to 800 nM.
In the same order, the values of `C[C@@H]1CN(c2cc(C(F)(F)F)cnc2-c2nnc(N[C@H]3N=C(c4ccccc4)c4ccccc4NC3=O)o2)CCO1` [Example 277] are less than 400 nM and less than 400 nM.
With `C[C@H]1CN(c2cc(C(F)(F)F)cnc2-c2nnc(N[C@H]3N=C(c4ccccc4)c4ccccc4NC3=O)o2)CCO1` [Example 278], the EC50 is less than 400 nM in data set [2] (setting [4]) and less than 400 nM in data set [3] (HEp-2, 120 h).
Take `COCCOc1cc(C#N)ccc1-c1nnc(N[C@H]2N=C(c3ccccc3)c3ccccc3NC2=O)o1` [Example 300]: the EC50 in data set [2] (setting [4]) was less than 400 nM; in data set [3] (HEp-2, 120 h) it was less than 400 nM.
Regarding `N#CCCNc1cc(C(F)(F)F)cnc1-c1nnc(N[C@H]2N=C(c3ccccc3)c3ccccc3NC2=O)o1` [Example 303], the EC50 in data set [2] (setting [4]) is less than 400 nM; in data set [3] (HEp-2, 120 h), less than 400 nM.
As to `N#Cc1cnc(-c2nnc(N[C@H]3N=C(c4ccccc4)c4ccccc4NC3=O)o2)c(N2CC3CCC(C2)O3)c1` [Example 304], the EC50 was less than 400 nM in data set [2] (setting [4]) and less than 400 nM in data set [3] (HEp-2, 120 h).
For `O=C1Nc2ccccc2C(c2ccccc2)=N[C@@H]1Nc1nnc(-c2nc3ccccc3cc2N2CCOCC2)o1` [Example 322], the 50% effective concentration (EC50) in data set [2] (setting [4]) was less than 400 nM; in data set [3] (HEp-2, 120 h) it was less than 400 nM.
As for `O=C1Nc2ccccc2C(c2ccccc2)=N[C@@H]1Nc1nnc(-c2ncsc2N2CCOCC2)o1` [Example 336], the half-maximal effective concentration (EC50) in data set [2] (setting [4]) was less than 400 nM; in data set [3] (HEp-2, 120 h), less than 400 nM.
Turning to `O=C1Nc2ccccc2C(c2ccccc2)=N[C@@H]1Nc1nnc(-c2nc(C3CC3)sc2N2CCOCC2)o1` [Example 338], the EC50 in data set [2] (setting [4]) was less than 400 nM; in data set [3] (HEp-2, 120 h) it was less than 400 nM.
In the case of `O=C1Nc2ccccc2C(c2ccccc2)=N[C@@H]1Nc1nnc(-c2nc(C(F)(F)F)sc2N2CCOCC2)o1` [Example 339], the EC50 in data set [2] (setting [4]) was less than 400 nM; in data set [3] (HEp-2, 120 h), less than 400 nM.
In the case of `O=C1Nc2ccccc2C(c2ccccc2)=N[C@@H]1Nc1nnc(-c2nc(-c3ccccc3)sc2N2CCOCC2)o1` [Example 340], the EC50 in data set [2] (setting [4]) is less than 400 nM; in data set [3] (HEp-2, 120 h), less than 400 nM.
On to `O=C1Nc2ccccc2C(c2ccccc2)=N[C@@H]1Nc1nnc(-c2nc(-c3ccccn3)sc2N2CCOCC2)o1` [Example 341], for which the EC50 in data set [2] (setting [4]) is less than 400 nM; in data set [3] (HEp-2, 120 h) it was less than 400 nM.
For the compound `O=C1Nc2ccccc2C(c2ccccc2)=N[C@@H]1Nc1nnc(-c2csc(N3CCOCC3)n2)o1` [Example 351], the EC50 in data set [2] (setting [4]) fell in the range of 400 to 800 nM; in data set [3] (HEp-2, 120 h), 400 to 800 nM.
As for `O=C1Nc2c(F)cccc2C(c2ccccc2)=N[C@@H]1Nc1nnc(-c2ccccc2N2CCOCC2)o1` [Example 355a], the EC50 is less than 400 nM in data set [2] (setting [4]) and less than 400 nM in data set [3] (HEp-2, 120 h).
Consider `O=C1Nc2ccccc2C(c2ccccc2)=NC1Nc1nnc(-c2ccc(-n3cccn3)cc2)[nH]1` (stereo not shown) [Example 364], for which the EC50 in data set [2] (setting [4]) was 400 to 800 nM; in data set [3] (HEp-2, 120 h), less than 400 nM.
Consider `N#Cc1ccc(-c2ccc(NC3N=C(c4ccccc4)c4ccccc4NC3=O)nn2)cc1` (stereo not shown) [Example 377], for which the EC50 in data set [2] (setting [4]) was less than 400 nM; in data set [3] (HEp-2, 120 h), less than 400 nM.
Turning to `CCc1nc(-c2nnc(N[C@H]3N=C(c4ccccc4)c4ccccc4NC3=O)o2)c(N2CCOCC2)s1` [Example 385], the EC50 in data set [2] (setting [4]) was less than 400 nM; in data set [3] (HEp-2, 120 h) it was less than 400 nM.
`O=C1Nc2ccccc2C(c2ccccc2)=N[C@@H]1Nc1nnc(-c2nc(C3CCC3)sc2N2CCOCC2)o1` [Example 387]: the EC50 is less than 400 nM in data set [2] (setting [4]) and less than 400 nM in data set [3] (HEp-2, 120 h).
Take `O=C1Nc2ccccc2C(c2ccccc2)=N[C@@H]1Nc1nnc(-c2nc(-c3cccnc3)sc2N2CCOCC2)o1` [Example 388]: the EC50 in data set [2] (setting [4]) is less than 400 nM; in data set [3] (HEp-2, 120 h) it was less than 400 nM.
Consider `CC(C)n1cc(-c2nnc(N[C@H]3N=C(c4ccccc4)c4ccccc4NC3=O)o2)c(N2CCOCC2)n1` [Example 403], for which the EC50 was less than 400 nM in data set [2] (setting [4]) and less than 400 nM in data set [3] (HEp-2, 120 h).
Consider `CC(F)(F)c1nc(-c2nnc(N[C@H]3N=C(c4ccccc4)c4ccccc4NC3=O)o2)c(N2CCOCC2)s1` [Example 407], for which the EC50 in data set [2] (setting [4]) is less than 400 nM; in data set [3] (HEp-2, 120 h) it was less than 400 nM.
Take `O=C1Nc2ccccc2C(c2ccccc2)=N[C@@H]1Nc1nnc(-c2nc(-c3ccncc3)sc2N2CCOCC2)o1` [Example 429]: the half-maximal effective concentration (EC50) in data set [2] (setting [4]) was less than 400 nM; in data set [3] (HEp-2, 120 h), less than 400 nM.
